From patent publication US12209089B1, “Pyrimido[1′,6′: 1,5]pyrazolo[4,3-c] [2,7] naphthyridines as CK2 inhibitors” (KING FAISAL UNIVERSITY, priority 2024, dated 2025) come the findings set out here.

Structures are written as SMILES.

Experiment [1] relates to H1299 (lung). Kind of experiment: In vitro cytotoxic activity (MTT) assay, H1299. Format: cell-based. Particulars: Homo sapiens, NCI-H1299; H1299 (lung) cells, 96 hours exposure; read-out: Cytotoxicity activity IC50 (50% inhibition of cell proliferation). The method, then:
(§1) Compounds 1-16 were screened for their in vitro cytotoxic activity utilizing a 3-(4,5-dimethyl-thiazol-2-yl)-2,5-diphenyltetrazolium bromide (MTT) assay against selected cancer human cell lines consisting of PC3 (prostate), HCT116 (colon), A375 (melanoma), H1299 (lung), MIAPaCa-2 (pancreas), HL60 (leukemia), MCF7 (breast), MDA-MB-231 (breast) (T. Mosmann, J. Immunol. Meth., 1983, 65, 55-63). The cells were cultured at 37° C. in RMPI1640 medium supplemented with 10% fetal bovine serum, 50 IU/mL penicillin, and 50 μg/mL streptomycin in a 5% CO2 incubator. All cells were sub-cultured 3 times/week by trypsinisation. Viable cells were seeded and allowed to adhere for 12 hours before a test drug was added in 96-well plates at an initial density of 1.0×10^5 cells/mL. Tumor cell lines were separately exposed to various concentrations of the tested compounds followed by incubation at a temperature of 37° C. during 96 hours inside a medium of fresh RMPI 1640. Cells were subsequently incubated at 37° C. using MTT at 0.5 mg/mL during 4 hours. After removal of supernatant, formazan crystals were dissolved in isopropanol and the optical density was measured at 570 nm. CX-4945 was used as a positive control.

Experiment [2] relates to HL60 (leukemia). Put plainly: In vitro cytotoxic activity (MTT) assay, HL60. It counts as cell-based. Particulars: Homo sapiens, HL-60; HL60 (leukemia) cells, 96 hours exposure; read-out: Cytotoxicity activity IC50 (50% inhibition of cell proliferation). The method, then: as §1
In experiment [3] the test system is MIAPaCa-2 (pancreas). Kind of experiment: In vitro cytotoxic activity (MTT) assay, MIAPaCa-2. The following applies: Homo sapiens, MIA PaCa-2; MIAPaCa-2 (pancreas) cells, 96 hours exposure; read-out: Cytotoxicity activity IC50 (50% inhibition of cell proliferation). It counts as cell-based. On the procedure: as §1
In experiment [4] the target is T1, recombinant human CK2 (holoenzyme) (Homo sapiens, UniProt P68400).
T1 construct: purchased Millipore
T1 sequence (P68400 whole entry): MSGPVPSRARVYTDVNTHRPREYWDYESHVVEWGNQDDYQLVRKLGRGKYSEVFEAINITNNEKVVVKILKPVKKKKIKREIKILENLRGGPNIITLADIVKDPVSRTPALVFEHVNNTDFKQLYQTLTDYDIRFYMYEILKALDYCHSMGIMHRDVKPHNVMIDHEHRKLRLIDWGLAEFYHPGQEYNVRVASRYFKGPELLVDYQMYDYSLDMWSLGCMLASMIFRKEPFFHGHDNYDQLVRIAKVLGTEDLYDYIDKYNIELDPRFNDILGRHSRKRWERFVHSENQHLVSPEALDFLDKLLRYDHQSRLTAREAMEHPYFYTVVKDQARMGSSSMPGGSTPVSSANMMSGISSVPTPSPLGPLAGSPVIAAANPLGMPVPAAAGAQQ
T1 sequence (P67870 whole entry partner): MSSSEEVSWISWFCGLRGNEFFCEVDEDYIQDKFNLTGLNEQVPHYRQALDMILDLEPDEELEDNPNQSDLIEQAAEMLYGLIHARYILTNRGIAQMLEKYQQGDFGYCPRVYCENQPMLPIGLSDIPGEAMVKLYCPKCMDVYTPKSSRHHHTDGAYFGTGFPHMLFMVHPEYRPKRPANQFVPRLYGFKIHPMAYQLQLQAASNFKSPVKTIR
Put plainly: CK2 Kinase Assay (33P-ATP, filter plate). Format: biochemical. The following applies: recombinant human CK2, 10 min at 30° C., eight concentrations; read-out: protein kinase CK2 IC50. On the procedure:
CK2 Kinase Assay was conducted using the protocol as described in Pierre F. et al; J. Med. Chem. 2011, 54, 635-654. The tested compounds in aqueous solution were added at a volume of 10 μL to a reaction mixture comprising 10 μL of assay dilution buffer (ADB; 20 mM MOPS, pH 7.2, 25 mM B-glycerol phosphate, 5 mM EGTA, 1 mM sodium orthovanadate, and 1 mM dithiothreitol), 10 μL of substrate peptide (RRRDDDSDDD, dissolved in ADB at a concentration of 1 mM), 10 μL of recombinant human CK2 (RRBB-holoenzyme, 25 ng dissolved in ADB; Millipore). Reactions were initiated by the addition of 10 μL of ATP solution (90% 75 mMMgCl2, 75 μM ATP (final ATP concentration: […]) dissolved in ADB; 10% [y-33P]ATP (stock 1mCi/100 μL; 3000 Ci/mmol (Perkin-Elmer) and maintained for 10 min at 30° C. The reactions were quenched with 100 μL of 0.75% phosphoric acid and then transferred to and filtered through a phosphor cellulose filter plate (Millipore). After washing each well five times with 0.75% phosphoric acid, the plate was dried under vacuum for 5 min and, following the addition of 15 μL of scintillation fluid to each well, the residual radioactivity was measured using a Wallac […] counter. The IC50 values were derived from eight concentrations of test inhibitors.

Experiment [5] deals with PC3 (prostate). Put plainly: In vitro cytotoxic activity (MTT) assay, PC3. It counts as cell-based. The following applies: Homo sapiens, Prostate cell; PC3 (prostate) cells, 96 hours exposure; read-out: Cytotoxicity activity IC50 (50% inhibition of cell proliferation). The method, then: as §1
Experiment [6] concerns HCT116 (colon). Kind of experiment: In vitro cytotoxic activity (MTT) assay, HCT116. Format: cell-based. The following applies: Homo sapiens, HCT-116; HCT116 (colon) cells, 96 hours exposure; read-out: Cytotoxicity activity IC50 (50% inhibition of cell proliferation). The method, then: as §1
Experiment [7] concerns MDA-MB-231 (breast). Put plainly: In vitro cytotoxic activity (MTT) assay, MDA-MB-231. Particulars: Homo sapiens; MDA-MB-231 (breast) cells, 96 hours exposure; read-out: Cytotoxicity activity IC50 (50% inhibition of cell proliferation). It counts as cell-based. The method, then: as §1
In experiment [8] the test system is MCF7 (breast). Put plainly: In vitro cytotoxic activity (MTT) assay, MCF7. Format: cell-based. The following applies: Homo sapiens; MCF7 (breast) cells, 96 hours exposure; read-out: Cytotoxicity activity IC50 (50% inhibition of cell proliferation). On the procedure:
as §1

Experiment [9] concerns A375 (melanoma). Kind of experiment: In vitro cytotoxic activity (MTT) assay, A375. The following applies: Homo sapiens, A-375; A375 (melanoma) cells, 96 hours exposure; read-out: Cytotoxicity activity IC50 (50% inhibition of cell proliferation). Format: cell-based. On the procedure:
as §1

For the molecule `Clc1cccc(Nc2nc3c(nn4cnccc34)c3ccncc23)c1` [Compound 1, N-(3-chlorophenyl)pyrimido[1′,6′: 1,5]pyrazolo[4,3-c][2,7]naphthyridin-5-amine], the IC50 in experiment [1] was 2.3 µM; in experiment [2] it was 4 µM; in experiment [3], 1.1 µM; in experiment [4], 0.03 µM; in experiment [5], 1.4 µM; in experiment [6], 1.2 µM. The IC50 is 4.5 µM in experiment [7], 5.3 µM in experiment [8] and 3.6 µM in [9].
